Test results published in patent US20100069319A1, “Mercaptopurine derivatives and uses thereof” (priority 2007, published 2010).

Assays:
[1] = tested on: Hela cells; test: Cell death by trypan blue dye exclusion / PI; type: cell-based, human; settings: 16 h; for sensitivity to treatment (cell death, words): 100 μM
Method: (§1) Cell death was monitored by trypan blue dye exclusion test or propidium iodide (PI) incorporation. Treated cells were incubated with PI (2 μg/ml) for 20 min at 37° C., washed with HBS and examined by fluorescence microscopy or analyzed by flow cytometry using fluorescence-activated cell sorting (Becton Dickinson FACScan Instrument using CellQuest software (BD Bioscience, San Jose, Calif.). Monolayer cells were trypsinized and washed with HBS before FACS analysis.
(§2) In parallel, the trypan blue dye exclusion test was used to assess cell death. In particular, different concentrations of 6MP and SA-6MP were applied to various cell cultures (Daudi and Hela cells, each at 30,000 cells/well) as described in Materials and Methods. The cells were stained with trypan blue to monitor the lethal effect of several concentrations of the tested conjugates as the percentage of dead cells. As shown in FIG. 3A-3D, cell death induced by 6-MP and SA-6MP was both concentration and cell type dependent. […] SA-6MP at concentrations higher than 150 μM reduced the residual viability to 75% (FIG. 3D).

[2] = tested on: MDR HT-29 cells; test: Cell death by trypan blue dye exclusion / PI; type: cell-based, human; settings: 16 h; for sensitivity to treatment (cell death, words): MDR HT-29, 100 μM
Method: as §1, §2

[3] = tested on: B-CLL cells; test: Cell death by trypan blue dye exclusion / PI; type: cell-based, human; settings: 16 h
Method: as §1, §2

[4] = tested on: Daudi cells; test: [3H] thymidine incorporation into DNA (cell proliferation); type: cell-based; settings: 16 h
Method: (§3) The effects of 6-MP derivatives on DNA synthesis were assessed by [Methyl-^3H] thymidine incorporation into DNA. All the experiments performed with cells were carried out at least in triplicates. Adhesive cells (N87, Hela HtTA-1 and MDR HT-29) were seeded at 10,000 cells/well (96-well plate) or 60,000 cells/well (24-well plate). Cells in suspension (B-CLL, Daudi, HL-60, Jurkat, MOLT4 and U937cells) were seeded at 15,000 cells/well (96-wells plate) or 100,000 cells/well (24-wells plate). Adhesive cells were grown at 37° C. for 6 h after seeding, before treatment. For the assessment of [Methyl-^3H] thymidine incorporation, cells were treated with various concentrations of 6-MP derivatives at 37° C. for 16 h in the presence of [Methyl-^3H] thymidine (0.8-1.0 μCi/well). Then, plates were frozen (−20° C., 1 h). Adhesive cells were trypsinized before harvesting. Cells in suspension were directly harvested after thawing out the frozen cells.
(§4) The antiproliferative effect of 6-MP and SA-6MP on various cell lines was assessed by determining [^3H] thymidine incorporation into the DNA. 6-MP and SA-6MP at 0-200 μM were applied to Daudi, Hela and N87 cells cultured in 96-well plates in the presence of [^3H] thymidine, as described in Materials and Methods. […] As further shown, the sensitivity to the prodrug is cell type dependent.

[5] = tested on: Daudi cells; test: XTT cell proliferation assay; type: cell-based; settings: 16 h
Method: (§5) Cell proliferation was determined by the XTT viability assay in 96-well plates, based on the reduction of tetrazolium salt to soluble formazan compounds by living cells. Cells (10,000-15,000 cells/well) were seeded in a 96-well plate. After 16 h incubation with various concentrations of 6-MP, 6-MPR and their S-allylthio-derivatives, 50 μl of XTT/PMS mixture (50 μM PMS, 0.1% XTT in medium) was added onto the cells. After an incubation period of 3-4 h at 37° C. the absorbance of the samples was measured in an ELISA Reader at 450 nm. SDS (1%, 10 μl/well) was added to reference wells before adding the XTT/PMS solution.
The inhibitory effects of the various prodrugs on Daudi leukemia cell and on monolayer N87 cells were compared. […] XTT was added to the wells for 3 h at 37° C. Cell viability was monitored using an ELISA reader at 450 nm, as described in Materials and Methods.

[6] = tested on: Daudi; test: Anti-proliferative concentration IC50 (Table 2); type: cell-based; settings: Homo sapiens, 16 h, tested at 0-100 μM, read-out: Anti-proferative concentration - IC50 (mean ± SE)
Method: as §5
(§6) The results of viability and proliferation were expressed as mean values±SD (n=3-6). For each cell line, the results were analyzed using two-way analysis of variance (ANOVA) followed by Bonferroni's posttest for the factors of the drugs used and their various concentrations, considering p<0.05 as significant. IC50 values (mean±SEM) were obtained from the linear range of the viability curve versus drug concentration (XTT assay).
(§7) In particular, cell in suspension, namely, Daudi, HL-60, U937, Molt-4, Jurkat and B-CLL, were tested at prodrug concentration of 0-100 μM, and monolayer cells, namely, Hela HtTA-1, MDR HT-29 and N87, were tested at prodrug concentration of 0-200 μM. in both cases, cell viability was determined by trypan blue dye exclusion assay. Data are presented in Table 2 hereinbelow for 6MP derivatives-treated for 16 h.

[7] = tested on: B-CLL; test: Anti-proliferative concentration IC50 (Table 2); type: cell-based; settings: Homo sapiens, 16 h, tested at 0-100 μM, read-out: Anti-proferative concentration - IC50 (mean ± SE)
Method: as §5, §6, §7

[8] = tested on: Molt-4; test: Anti-proliferative concentration IC50 (Table 2); type: cell-based; settings: Homo sapiens; Molt-4, 16 h, tested at 0-100 μM; read-out: Anti-proferative concentration - IC50 (mean ± SE)
Method: as §5, §6, §7

[9] = tested on: Jurkat; test: Anti-proliferative concentration IC50 (Table 2); type: cell-based, human; settings: Homo sapiens, 16 h, tested at 0-100 μM, read-out: Anti-proferative concentration - IC50 (mean ± SE)
Method: as §5, §6, §7

[10] = tested on: MDR HT-29; test: Anti-proliferative concentration IC50 (Table 2); type: cell-based, human; settings: Homo sapiens; MDR HT-29, 16 h, tested at 0-200 μM; read-out: Anti-proferative concentration - IC50 (mean ± SE)
Method: as §5, §6, §7

[11] = tested on: Hela; test: Anti-proliferative concentration IC50 (Table 2); type: cell-based, human; settings: Homo sapiens, 16 h, tested at 0-200 μM, read-out: Anti-proferative concentration - IC50 (mean ± SE)
Method: as §5, §6, §7

[12] = tested on: U937; test: Anti-proliferative concentration IC50 (Table 2); type: cell-based, human; settings: Homo sapiens, U-937; U937, 16 h, tested at 0-100 μM; read-out: Anti-proferative concentration - IC50 (mean ± SE)
Method: as §5, §6, §7

[13] = tested on: Hela cells; test: [3H] thymidine incorporation into DNA (cell proliferation); type: cell-based, human; settings: 16 h
Method: as §3, §4

[14] = tested on: N87 cells; test: as above; type: cell-based, human; settings: 16 h
Method: as §3, §4

[15] = tested on: Daudi cells; test: Cell death by trypan blue dye exclusion / PI; type: cell-based; settings: 16 h
Method: as §1, §2

[16] = at the same concentrations (0-200 μM)
[17] = Homo sapiens, [3H] thymidine incorporation, read-out: concentration at which 50% inhibition was observed

| SMILES | sensitivity to treatment (cell death, words) [1] | sensitivity to treatment (cell death, words) [2] | IC50 [6] | IC50 [7] | IC50 [8] | IC50 [9] | IC50 [10] | IC50 [11] | IC50 [12] | also measured |
| --- | --- | --- | --- | --- | --- | --- | --- | --- | --- | --- |
| Sc1ncnc2nc[nH]c12 [6-MP, 6-Mercaptopurine, reference compound] | almost non-sensitive | almost non-sensitive | > 200 µM | > 900 µM | 50.5 ± 6.1 µM | > 200 µM | > 200 µM | > 200 µM | > 200 µM | viability at 200 µM ([1]; Homo sapiens, 200 μM): 75%; sensitivity to treatment ([3]; 100-200 μM): almost insensitive; inhibition of proliferation [4, 16]: no inhibition of proliferation; cell proliferation ([5]; 0-100 μM): no significant loss of cell proliferation; inhibition of proliferation [13, 16]: no inhibition of proliferation; inhibition of proliferation [14, 16]: no inhibition of proliferation; effect on cell viability ([15]; concentrations higher than 100 μM): no significant effect on cell viability |
| C=CCSSc1ncnc2nc[nH]c12 [SA-6MP, S-allylthio-6-mercaptopurine] | almost non-sensitive | almost non-sensitive | 38.3 ± 3.9 µM | 129 ± 14.2 µM | 8.9 ± 1.2 µM | 54.7 ± 6.3 µM | 126 ± 19.1 µM | 114 ± 12 µM | 46.7 ± 4.8 µM | viability at 150 µM ([1]; Homo sapiens, 150 μM, read-out: viability compared to non-treated cells): 65%; viability at 150 µM ([2]; Homo sapiens, MDR HT-29, 150 μM, read-out: viability compared to non-treated cells): 40%; residual viability ([3]; concentrations higher than 150 μM): 75%; IC50 [4, 17]: ~20 µM; residual proliferation ([5]; 50 μM): 15-30%; IC50 [13, 17]: 110 µM; IC50 [14, 17]: 100 µM; viability at 50 µM ([15]; Homo sapiens, 50 μM, read-out: residual viability): ~20% |
